Results: PMC4592835 (Bioorganic & medicinal chemistry letters, 2015)

Assays:
[1] = test system: human metastatic breast cancer line, MDA-MB-231; details: different experimental conditions; cited from earlier work
[2] = test system: caspase-3/7; test: Enzymatic activity of caspases-3/7 in treated MDA-MB-231 cells; assay type: cell-based, human; details: MDA-MB-231 cells treated at 10 μM

| SMILES | in vivo activity profile compared with M11, in words [1] | potency relative to monomer M11 in caspase-3/7 activation [2] |
| --- | --- | --- |
| CN[C@@H](C)C(=O)N[C@H]1CCCC[C@H]2CC[C@@H](C(=O)N[C@@H](c3ccccc3)c3cn(CCCCc4ccc(CCCCn5cc([C@@H](NC(=O)[C@@H]6CC[C@@H]7CCCC[C@H](NC(=O)[C@H](C)NC)C(=O)N76)c6ccccc6)nn5)cc4)nn3)N2C1=O [SM-164] | markedly improved activity profiles | – |
| CN[C@@H](C)C(=O)N[C@@H](CSCc1ccc(-c2ccc(CSC[C@H](NC(=O)[C@H](C)NC)C(=O)N3CCC[C@H]3C(=O)NC(c3ccccc3)c3ccccc3)cc2)cc1)C(=O)N1CCC[C@H]1C(=O)NC(c1ccccc1)c1ccccc1 [Compound D13] | – | ~ 2.5 × |
